Among the data in ChEMBL document CHEMBL1909046, “DrugMatrix in vitro pharmacology data” are IC50 and Ki values, retold here.

One assay deals with T1, Substance-K receptor (Homo sapiens, UniProt P21452).
T1 sequence (P21452 whole entry): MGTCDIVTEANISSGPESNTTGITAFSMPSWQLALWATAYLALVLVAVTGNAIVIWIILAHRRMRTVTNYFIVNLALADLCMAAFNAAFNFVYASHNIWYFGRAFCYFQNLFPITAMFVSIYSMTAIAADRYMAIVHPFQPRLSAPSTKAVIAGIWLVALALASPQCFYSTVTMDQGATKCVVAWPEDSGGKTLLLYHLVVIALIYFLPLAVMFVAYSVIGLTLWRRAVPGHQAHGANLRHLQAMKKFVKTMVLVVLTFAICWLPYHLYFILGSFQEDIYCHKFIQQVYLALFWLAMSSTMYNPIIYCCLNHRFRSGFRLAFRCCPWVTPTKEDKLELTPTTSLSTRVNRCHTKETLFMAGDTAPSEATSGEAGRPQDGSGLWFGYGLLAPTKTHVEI
The class given is cell membranes, CHO, Membrane. The following applies: cho.

The target of assay [1] is T2, Muscarinic acetylcholine receptor M5 (Homo sapiens, UniProt P08912). Also: in other assays of this panel Not Active means under 50% inhibition at 10 µM.
T2 sequence (P08912 whole entry): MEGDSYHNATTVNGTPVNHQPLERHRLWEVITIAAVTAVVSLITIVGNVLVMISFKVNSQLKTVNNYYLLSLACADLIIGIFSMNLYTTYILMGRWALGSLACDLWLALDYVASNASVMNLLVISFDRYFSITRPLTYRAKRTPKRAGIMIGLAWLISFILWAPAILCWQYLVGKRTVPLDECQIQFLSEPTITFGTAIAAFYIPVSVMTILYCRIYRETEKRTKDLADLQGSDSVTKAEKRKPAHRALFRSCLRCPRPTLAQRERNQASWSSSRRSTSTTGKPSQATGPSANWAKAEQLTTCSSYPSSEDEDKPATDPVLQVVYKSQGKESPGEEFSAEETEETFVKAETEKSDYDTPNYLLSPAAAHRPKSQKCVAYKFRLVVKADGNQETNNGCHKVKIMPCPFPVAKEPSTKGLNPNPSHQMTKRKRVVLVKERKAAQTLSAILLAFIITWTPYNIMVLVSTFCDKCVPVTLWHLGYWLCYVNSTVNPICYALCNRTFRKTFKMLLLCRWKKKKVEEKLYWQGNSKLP
The class given is cell membranes, CHO-K1, Membrane.

Assay [2] concerns the target Protein kinase C alpha type (Homo sapiens, UniProt P17252). The class given is cell-based. Conditions: sf9.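 Also: inhibition of PKCalpha kinase activity measured in an enzyme assay with histone as the phosphorylation substrate; in other assays of this panel Not Active means under 50% inhibition at 10 µM.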
The target in assay [3] is Sodium-dependent noradrenaline transporter (Homo sapiens, UniProt P23975). The assay can be described thus: DRUGMATRIX: Norepinephrine Transporter radioligand binding (ligand: [125I] RTI-55). The class given is cell membranes, MDCK, Membrane. The following applies: Not Active = under 50% inhibition at 10 µM.
Sequence of Sodium-dependent noradrenaline transporter (P23975 whole entry): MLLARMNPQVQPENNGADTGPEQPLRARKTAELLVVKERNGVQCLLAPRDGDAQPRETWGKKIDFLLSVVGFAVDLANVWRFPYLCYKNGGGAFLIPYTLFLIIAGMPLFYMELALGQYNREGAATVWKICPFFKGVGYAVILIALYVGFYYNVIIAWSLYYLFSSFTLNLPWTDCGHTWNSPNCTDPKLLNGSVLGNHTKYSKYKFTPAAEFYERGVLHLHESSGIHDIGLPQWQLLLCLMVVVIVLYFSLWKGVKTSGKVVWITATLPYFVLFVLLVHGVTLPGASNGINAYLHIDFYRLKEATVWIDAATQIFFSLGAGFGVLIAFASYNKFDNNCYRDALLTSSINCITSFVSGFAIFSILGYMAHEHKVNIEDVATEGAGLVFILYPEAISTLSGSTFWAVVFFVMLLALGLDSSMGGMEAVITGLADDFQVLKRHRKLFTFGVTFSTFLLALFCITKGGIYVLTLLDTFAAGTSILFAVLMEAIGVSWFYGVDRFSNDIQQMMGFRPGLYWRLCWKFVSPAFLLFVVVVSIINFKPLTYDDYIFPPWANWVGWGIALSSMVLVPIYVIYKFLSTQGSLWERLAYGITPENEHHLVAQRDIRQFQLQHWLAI
Assay [4] in a line: DRUGMATRIX: Serotonin (5-Hydroxytryptamine) 5-HT3 radioligand binding (ligand: [3H] GR-65630). The class given is cell membranes, Membrane. Conditions: hek293; Not Active = under 50% inhibition at 10 µM.
Assay [5] has as its target T3, 5-hydroxytryptamine receptor 1A (Rattus norvegicus, UniProt P19327). Also: in other assays of this panel Not Active means under 50% inhibition at 10 µM.
T3 sequence (P19327 whole entry): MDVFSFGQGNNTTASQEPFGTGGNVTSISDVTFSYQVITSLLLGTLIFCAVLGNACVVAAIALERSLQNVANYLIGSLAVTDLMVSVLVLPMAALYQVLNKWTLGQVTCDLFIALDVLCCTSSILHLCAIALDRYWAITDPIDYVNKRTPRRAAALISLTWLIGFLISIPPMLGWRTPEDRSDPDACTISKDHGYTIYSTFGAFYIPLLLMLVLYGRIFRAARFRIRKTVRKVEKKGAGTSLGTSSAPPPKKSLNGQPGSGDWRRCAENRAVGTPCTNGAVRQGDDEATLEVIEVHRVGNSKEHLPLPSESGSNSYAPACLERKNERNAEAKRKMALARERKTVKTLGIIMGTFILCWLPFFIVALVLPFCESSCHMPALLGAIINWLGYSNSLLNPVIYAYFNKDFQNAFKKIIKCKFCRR
The assay is classed as cell membranes, CHO-K1, Membrane.

Broadly, the IC50 is the midpoint of a concentration-inhibition curve. Usually Ki stands for a measure of affinity in units of concentration, obtained from inhibition or displacement.

For `OC[C@H]1O[C@@H]2O[C@H]3[C@H](O)[C@@H](O)[C@@H](O[C@H]4[C@H](O)[C@@H](O)[C@@H](O[C@H]5[C@H](O)[C@@H](O)[C@@H](O[C@H]6[C@H](O)[C@@H](O)[C@@H](O[C@H]7[C@H](O)[C@@H](O)[C@@H](O[C@H]1[C@H](O)[C@H]2O)O[C@@H]7CO)O[C@@H]6CO)O[C@@H]5CO)O[C@@H]4CO)O[C@@H]3CO` [ALFADEX], the 50% inhibitory concentration (IC50) entry (at Substance-K receptor; in assay [1] (cho-k1); in assay [2]; in assay [3] (mdck); in assay [4]; in assay [5] (cho-k1)) was “Not Active” in each case. Further, the Ki result in assay [4] is given as “Not Active”.
Take `CC(=O)Nc1ccc2c(c1)Cc1ccccc1-2` [2-ACETYLAMINOFLUORENE]: the IC50 entry against Substance-K receptor is “Not Active”; in assay [1] (cho-k1), “Not Active”; in assay [2], “Not Active”; in assay [3] (read-out: IC50), 8.59 µM; in assay [4], “Not Active”; in assay [5] (cho-k1), “Not Active”. The Ki in assay [3] (read-out: Ki) is 8.52 µM; in assay [4], “Not Active”.
As for `CCN1CCN(c2cc3c(cc2F)c(=O)c(C(=O)O)cn3C2CC2)CC1` [ENROFLOXACIN], the IC50 result (against Substance-K receptor; in assay [1] (cho-k1); in assay [2]; in assay [3] (mdck); in assay [4]; in assay [5] (cho-k1)) was “Not Active” each time. In addition, the Ki entry in assay [4] is listed as “Not Active”.
Take `O=C(O)CO` [GLYCOLIC ACID]: the IC50 entry (against Substance-K receptor; in assay [1] (cho-k1); in assay [2]; in assay [3] (mdck); in assay [4]; in assay [5] (cho-k1)) was “Not Active” in each case. The inhibition constant (Ki) result in assay [4] is on record as “Not Active”.
Turning to `CN(Cc1cc(Br)cc(Br)c1N)C1CCCCC1` [BROMHEXINE], the IC50 result (on Substance-K receptor; in assay [1] (cho-k1); in assay [2]; in assay [3] (mdck); in assay [4]; in assay [5] (cho-k1)) was “Not Active” throughout. Also, the Ki entry in assay [4] is listed as “Not Active”.
Take `CC12CCC(CC1)C(C)(C)O2` [EUCALYPTOL]: the IC50 result (against Substance-K receptor; in assay [1] (cho-k1); in assay [2]; in assay [3] (mdck); in assay [4]; in assay [5] (cho-k1)) was “Not Active” each time. In assay [4], the Ki result was “Not Active”.
On to `C[C@@H]1[C@H](O)[C@@H](C)/C=C/C=C/C=C/C=C/C=C/C=C/C=C/[C@H](O[C@@H]2O[C@H](C)[C@@H](O)[C@H](N)[C@@H]2O)C[C@@H]2O[C@](O)(C[C@@H](O)C[C@@H](O)[C@H](O)CC[C@@H](O)C[C@@H](O)CC(=O)O[C@H]1C)C[C@H](O)[C@H]2C(=O)O` [AMPHOTERICIN B], for which the IC50 result (against Substance-K receptor; in assay [1] (cho-k1); in assay [2]; in assay [3] (mdck); in assay [4]; in assay [5] (cho-k1)) was “Not Active” throughout. The Ki entry in assay [4] is listed as “Not Active”.
For the compound `Cc1cc(C(C)(C)C)c(O)c(C)c1CC1=NCCN1` [OXYMETAZOLINE], the IC50 result was “Not Active” against Substance-K receptor; 1.33 µM in assay [1] (read-out: IC50); “Not Active” in assay [2]; “Not Active” in assay [3] (mdck); “Not Active” in assay [4]; 0.00561 µM in assay [5] (read-out: IC50). Besides, the Ki in assay [1] (read-out: Ki) is 0.957 µM; in assay [4], “Not Active”; in assay [5] (read-out: Ki), 0.00321 µM.
For `CCN(CCO)CCCC(C)Nc1ccnc2cc(Cl)ccc12` (stereo not drawn) [HYDROXYCHLOROQUINE], the IC50 entry (on Substance-K receptor; in assay [1] (cho-k1); in assay [2]; in assay [3] (mdck); in assay [4]; in assay [5] (cho-k1)) was “Not Active” throughout. Also, the Ki result in assay [4] is on record as “Not Active”.
Turning to `CC12CCC(CC1=O)C2(C)C` (stereo not drawn) [CAMPHOR], the IC50 result (at Substance-K receptor; in assay [1] (cho-k1); in assay [2]; in assay [3] (mdck); in assay [4]; in assay [5] (cho-k1)) was “Not Active” each time. Further, in assay [4], the Ki entry is listed as “Not Active”.
For the compound `CCC1(c2ccccc2)C(=O)NC(=O)NC1=O` [PHENOBARBITAL], the IC50 result (against Substance-K receptor; in assay [1] (cho-k1); in assay [2]; in assay [3] (mdck); in assay [4]; in assay [5] (cho-k1)) was “Not Active” throughout. In addition, in assay [4], the Ki result is “Not Active”.
For `C[N+](C)(C)CCOP(=O)([O-])OC[C@H](O)CO`, the IC50 result (against Substance-K receptor; in assay [1] (cho-k1); in assay [2]; in assay [3] (mdck); in assay [4]; in assay [5] (cho-k1)) was “Not Active” throughout. Besides, in assay [4], the Ki entry was “Not Active”.
In the case of `Oc1ccccc1` [PHENOL], the IC50 result (on Substance-K receptor; in assay [1] (cho-k1); in assay [2]; in assay [3] (mdck); in assay [4]; in assay [5] (cho-k1)) was “Not Active” throughout. Besides, the Ki entry in assay [4] is “Not Active”.
Regarding `Nc1nc(F)nc2c1ncn2[C@@H]1O[C@H](CO)[C@@H](O)[C@@H]1O` [FLUDARABINE], the IC50 entry (on Substance-K receptor; in assay [1] (cho-k1); in assay [2]; in assay [3] (mdck); in assay [4]; in assay [5] (cho-k1)) was “Not Active” throughout. The Ki result in assay [4] was “Not Active”.
Take `c1ccc(Cn2ccnc2)cc1`: the IC50 entry (against Substance-K receptor; in assay [1] (cho-k1); in assay [2]; in assay [3] (mdck); in assay [4]; in assay [5] (cho-k1)) was “Not Active” throughout. Further, the Ki entry in assay [4] was “Not Active”.
Regarding `Nc1nc(N)c2nc(CNc3ccc(C(=O)N[C@@H](CCC(=O)O)C(=O)O)cc3)cnc2n1` [AMINOPTERIN], the IC50 entry (against Substance-K receptor; in assay [1] (cho-k1); in assay [2]; in assay [3] (mdck); in assay [4]; in assay [5] (cho-k1)) was “Not Active” throughout. For the same compound, the Ki entry in assay [4] is given as “Not Active”.
On to `C=C(Cl)Cl` [1,1-DICHLOROETHENE], for which the IC50 result (against Substance-K receptor; in assay [1] (cho-k1); in assay [2]; in assay [3] (mdck); in assay [4]; in assay [5] (cho-k1)) was “Not Active” in each case. The Ki result in assay [4] is “Not Active”.
`Oc1ncnc2[nH]ncc12` [ALLOPURINOL]: the half-maximal inhibitory concentration (IC50) entry (on Substance-K receptor; in assay [1] (cho-k1); in assay [2]; in assay [3] (mdck); in assay [4]; in assay [5] (cho-k1)) was “Not Active” in each case. Besides, the Ki result in assay [4] is recorded as “Not Active”.
`O=C(O)CCc1nc(-c2ccccc2)c(-c2ccccc2)o1` [OXAPROZIN]: the IC50 result (against Substance-K receptor; in assay [1] (cho-k1); in assay [2]; in assay [3] (mdck); in assay [4]; in assay [5] (cho-k1)) was “Not Active” throughout. Also, in assay [4], the Ki entry is listed as “Not Active”.
Consider `ClC1=C(Cl)[C@]2(Cl)[C@@H]3[C@@H]4C[C@@H]([C@H]5O[C@@H]45)[C@@H]3[C@@]1(Cl)C2(Cl)Cl` [DIELDRIN], for which the IC50 result (on Substance-K receptor; in assay [1] (cho-k1); in assay [2]; in assay [3] (mdck); in assay [4]; in assay [5] (cho-k1)) was “Not Active” in each case. In assay [4], the Ki result is listed as “Not Active”.
